Experiments:
Assay type in all cases: in vivo
[1] = system: blackgrass (Alopecurus myosuroides); test: Test C pre-/postemergence greenhouse test, plant response rating 0-100; settings: Postemergence; for Plant response rating, Blackgrass: scale 0 to 100
Outline: (§1)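 Greenhouse test. Preemergence: seed in loam:sand, sprayed with formulated chemical (solvent + surfactant). Postemergence: 1–4 leaf plants, 2–18 cm, peat-based potting medium. Hold 13–15 d; score visually, 0 (none) to 100 (complete control); dash = not tested.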

[2] = system: ragweed (common ragweed, Ambrosia elatior); test: as above; settings: Postemergence
Outline: as §1

[3] = system: giant foxtail (Setaria faberii); test: Test A pre-/postemergence greenhouse herbicide test, visual injury rating 0-100
Outline: (§2)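 Planting in a loam and sand mixture preceded a directed preemergence soil spray; postemergence spray was applied concurrently to one- to two-leaf plants. After roughly 10 days under glass, injury is scored visually against untreated controls, 0–100.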

[4] = system: morningglory (Ipomoea spp.); test: as above
Outline: as §2

[5] = system: wheat (Triticum aestivum); test: as above
Outline: as §2

corn (Zea mays) = test: as above
Outline: as §2

[6] = system: large (Lg) crabgrass (Digitaria sanguinalis); test: as above
Outline: as §2

[7] = system: velvetleaf (Abutilon theophrasti); test: as above
Outline: as §2

[8] = system: pigweed (Amaranthus retroflexus); test: as above
Outline: as §2

[9] = system: barnyardgrass (Echinochloa crus-galli); test: as above
Outline: as §2

wild oat (Avena fatua) = test: Test C postemergence greenhouse test, plant response rating 0-100
Outline: (§3)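 Visual rating vs. controls, 0 (no effect) to 100 (complete control), 13–15 d after postemergence treatment. Potted plants, 1- to 4-leaf stage (2–18 cm), greenhouse-held.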

[10] = system: chickweed (common chickweed, Stellaria media); test: as above
Outline: as §3

kochia (Kochia scoparia) = test: as above
Outline: as §3

## O=C(c1ccccc1)c1cn(S(=O)(=O)CCl)nc1-c1cc(Cl)cc(Cl)c1 [Compound 1]
[1]; 31 g ai/ha
  Plant response rating (0 to 100), Blackgrass: 0
[1]; 62 g ai/ha
  Plant response rating (0 to 100), Blackgrass: 0
[1]; 125 g ai/ha
  Plant response rating, Blackgrass: 0
[1]; 250 g ai/ha
  Plant response rating, Blackgrass: 0
[2]; 62 g ai/ha
  Plant response rating (0 to 100), Ragweed: 40
[2]; 125 g ai/ha
  Plant response rating (0 to 100), Ragweed: 50
[2]; 250 g ai/ha, scale 0 to 100
  Plant response rating, Ragweed: 65
[3]; Postemergence, 125 g ai/ha
  Plant response rating (0 to 100 scale), Foxtail, Giant: 0
[3]; Postemergence, 500 g ai/ha
  Plant response rating (0 to 100 scale), Foxtail, Giant: 0
[3]; Preemergence, 125 g ai/ha
  Foxtail, Giant plant response rating (0 = no effect, 100 = complete control): 0
[3]; Preemergence, 500 g ai/ha
  Plant response rating (0 to 100 scale), Foxtail, Giant: 0
[4]; Postemergence, 125 g ai/ha
  Plant response rating (0 to 100 scale), Morningglory: 0
[4]; Postemergence, 500 g ai/ha
  Plant response rating (0 to 100 scale), Morningglory: 0
[4]; Preemergence, 125 g ai/ha
  Morningglory plant response rating (0 = no effect, 100 = complete control): 0
[4]; Preemergence, 500 g ai/ha
  Plant response rating (0 to 100 scale), Morningglory: 0
[5]; Postemergence, 125 g ai/ha
  Plant response rating (0 to 100 scale), Wheat: 0
[5]; Postemergence, 500 g ai/ha
  Plant response rating (0 to 100 scale), Wheat: 0
[5]; Preemergence, 125 g ai/ha
  Wheat plant response rating (0 = no effect, 100 = complete control): 0
[5]; Preemergence, 500 g ai/ha
  Plant response rating (0 to 100 scale), Wheat: 0
Corn (Zea mays); Postemergence, 125 g ai/ha
  Plant response rating (0 to 100 scale), Corn: 0
Corn (Zea mays); Postemergence, 500 g ai/ha
  Plant response rating (0 to 100 scale), Corn: 0
Corn (Zea mays); Preemergence, 125 g ai/ha
  Corn plant response rating (0 = no effect, 100 = complete control): 0
Corn (Zea mays); Preemergence, 500 g ai/ha
  Plant response rating (0 to 100 scale), Corn: 0
[6]; Postemergence, 125 g ai/ha
  Plant response rating (0 to 100 scale), Crabgrass, Large: 0
[6]; Postemergence, 500 g ai/ha
  Plant response rating (0 to 100 scale), Crabgrass, Large: 0
[6]; Preemergence, 125 g ai/ha
  Crabgrass, Large plant response rating (0 = no effect, 100 = complete control): 0
[6]; Preemergence, 500 g ai/ha
  Plant response rating (0 to 100 scale), Crabgrass, Large: 0
[7]; Postemergence, 125 g ai/ha
  Plant response rating (0 to 100 scale), Velvetleaf: 90
[7]; Postemergence, 500 g ai/ha
  Plant response rating (0 to 100 scale), Velvetleaf: 90
[7]; Preemergence, 125 g ai/ha
  Velvetleaf plant response rating (0 = no effect, 100 = complete control): 20
[7]; Preemergence, 500 g ai/ha
  Plant response rating (0 to 100 scale), Velvetleaf: 20
[8]; Postemergence, 125 g ai/ha
  Plant response rating (0 to 100 scale), Pigweed: 80
[8]; Postemergence, 500 g ai/ha
  Plant response rating (0 to 100 scale), Pigweed: 90
[8]; Preemergence, 125 g ai/ha
  Pigweed plant response rating (0 = no effect, 100 = complete control): 40
[8]; Preemergence, 500 g ai/ha
  Plant response rating (0 to 100 scale), Pigweed: 80
[9]; Postemergence, 125 g ai/ha
  Plant response rating (0 to 100 scale), Barnyardgrass: 0
[9]; Postemergence, 500 g ai/ha
  Plant response rating (0 to 100 scale), Barnyardgrass: 0
[9]; Preemergence, 125 g ai/ha
  Barnyardgrass plant response rating (0 = no effect, 100 = complete control): 0
[9]; Preemergence, 500 g ai/ha
  Plant response rating (0 to 100 scale), Barnyardgrass: 0
Wild oat (Avena fatua); 62 g ai/ha
  Plant response rating (0 to 100), Oat, Wild: 0
Wild oat (Avena fatua); 125 g ai/ha
  Plant response rating (0 to 100), Oat, Wild: 0
Wild oat (Avena fatua); 250 g ai/ha, scale 0 to 100
  Plant response rating, Oat, Wild: 0
[10]; 31 g ai/ha
  Plant response rating (0 to 100), Chickweed: 90
[10]; 62 g ai/ha
  Plant response rating (0 to 100), Chickweed: 100
[10]; 125 g ai/ha
  Plant response rating (0 to 100), Chickweed: 100
[10]; 250 g ai/ha, scale 0 to 100
  Plant response rating, Chickweed: 100
Kochia (Kochia scoparia); 62 g ai/ha
  Plant response rating (0 to 100), Kochia: 80
Kochia (Kochia scoparia); 125 g ai/ha
  Plant response rating (0 to 100), Kochia: 85
Kochia (Kochia scoparia); 250 g ai/ha, scale 0 to 100
  Plant response rating, Kochia: 90

Reference: patent US10167262B2, “Herbicidal substituted 3-arylpyrazoles” (FMC CORPORATION, priority 2014, dated 2019)
